From PubChem BioAssay AID2060347 (Molecular Pharmacology Branch, DTP, NCI, 2025)

Test system: 817829-284-R-J1-PDC spheroids with HUVEC/MSC, viability
Experiment: Anticancer human tumor 817829-284-R-J1-PDC patient-derived colon adenocarcinoma cell line growth inhibition [TAK]
Details: for IC50: curve of first compound; for viability, T/C: stronger effect = lower value
Procedure, shortened: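 Spheroids of 60% malignant cells, 25% HUVEC and 15% hMSC were exposed to targeted agents combined with TAK-243 or ipatasertib. Concentrations started at or near clinical Cmax (10 microM if unknown) and descended in half-log steps.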

[1] = second compound 0.3 µM, first compound 0.0316 µM
[2] = second compound 0.3 µM, first compound 0.1 µM
[3] = second compound 0.3 µM, first compound 0.316 µM
[4] = second compound 0.3 µM, first compound 1 µM
[5] = second compound 0.3 µM, first compound 3.16 µM
[6] = second compound 0.3 µM, first compound 10 µM
[7] = second compound 0.949 µM, first compound 0.0316 µM
[8] = second compound 0.949 µM, first compound 0.1 µM
[9] = second compound 0.949 µM, first compound 0.316 µM
[10] = second compound 0.949 µM, first compound 1 µM
[11] = second compound 0.949 µM, first compound 3.16 µM
[12] = second compound 0.949 µM, first compound 10 µM
[13] = second compound 3 µM, first compound 0.0316 µM
[14] = second compound 3 µM, first compound 0.1 µM
[15] = second compound 3 µM, first compound 0.316 µM
[16] = second compound 3 µM, first compound 1 µM
[17] = second compound 3 µM, first compound 3.16 µM
[18] = second compound 3 µM, first compound 10 µM
[19] = second compound 9.49 µM, first compound 0.0316 µM
[20] = second compound 9.49 µM, first compound 0.1 µM
[21] = second compound 9.49 µM, first compound 0.316 µM
[22] = second compound 9.49 µM, first compound 1 µM
[23] = second compound 9.49 µM, first compound 3.16 µM
[24] = second compound 9.49 µM, first compound 10 µM
[25] = second compound 30 µM, first compound 0.0316 µM
[26] = second compound 30 µM, first compound 0.1 µM
[27] = second compound 30 µM, first compound 0.316 µM
[28] = second compound 30 µM, first compound 1 µM
[29] = second compound 30 µM, first compound 3.16 µM
[30] = second compound 30 µM, first compound 10 µM
[31] = second compound 0.3 µM, first compound 0.000316 µM
[32] = second compound 0.3 µM, first compound 0.001 µM
[33] = second compound 0.3 µM, first compound 0.00316 µM
[34] = second compound 0.3 µM, first compound 0.01 µM
[35] = second compound 0.949 µM, first compound 0.000316 µM
[36] = second compound 0.949 µM, first compound 0.001 µM
[37] = second compound 0.949 µM, first compound 0.00316 µM
[38] = second compound 0.949 µM, first compound 0.01 µM
[39] = second compound 3 µM, first compound 0.000316 µM
[40] = second compound 3 µM, first compound 0.001 µM
[41] = second compound 3 µM, first compound 0.00316 µM
[42] = second compound 3 µM, first compound 0.01 µM
[43] = second compound 9.49 µM, first compound 0.000316 µM
[44] = second compound 9.49 µM, first compound 0.001 µM
[45] = second compound 9.49 µM, first compound 0.00316 µM
[46] = second compound 9.49 µM, first compound 0.01 µM
[47] = second compound 30 µM, first compound 0.000316 µM
[48] = second compound 30 µM, first compound 0.001 µM
[49] = second compound 30 µM, first compound 0.00316 µM
[50] = second compound 30 µM, first compound 0.01 µM

For `CC(C)(C)c1nc(-c2cccc(NS(=O)(=O)c3c(F)cccc3F)c2F)c(-c2ccnc(N)n2)s1` + CC(C)NCC(C(=O)N1CCN(c2ncnc3c2C(C)CC3O)CC1)c1ccc(Cl)cc1, the IC50 (second compound 0.3 µM) was 110 nM, the IC50 (second compound 0.949 µM) was under 31.6 nM and the IC50 (second compound 3 µM) was under 31.6 nM. For the same molecule, the IC50 (second compound 9.49 µM) was under 31.6 nM, the IC50 (second compound 30 µM) was under 31.6 nM and the viability, T/C [1] was 77.1%. It also gave a viability, T/C [2] of 52.1%, a viability, T/C [3] of 27.6% and a viability, T/C [4] of 18%. It also gave a viability, T/C [5] of 20%, a viability, T/C [6] of 40.6% and a viability, T/C [7] of 27.6%. The viability, T/C [8] was 31.9%, the viability, T/C [9] was 22.4% and the viability, T/C [10] was 15.3%. It also gave a viability, T/C [11] of 15.6%, a viability, T/C [12] of 20.1% and a viability, T/C [13] of 15.9%. For the same molecule, the viability, T/C [14] was 16.9%, the viability, T/C [15] was 13.4% and the viability, T/C [16] was 11.1%. For the same molecule, the viability, T/C [17] was 11%, the viability, T/C [18] was 13.7% and the viability, T/C [19] was 9.35%. The viability, T/C [20] was 10.3%, the viability, T/C [21] was 9.8% and the viability, T/C [22] was 7.09%. The viability, T/C [23] was 6.36%, the viability, T/C [24] was 9.46% and the viability, T/C [25] was 5.5%. It also gave a viability, T/C [26] of 5.14%, a viability, T/C [27] of 5.38% and a viability, T/C [28] of 3.29%. For the same molecule, the viability, T/C [29] was 3.24% and the viability, T/C [30] was 4.85%.
`CC(C)CC(NC(=O)CNC(=O)c1cc(Cl)ccc1Cl)B1OC(=O)CC(CC(=O)O)(C(=O)O)O1` (stereo not given) + CC(C)NCC(C(=O)N1CCN(c2ncnc3c2C(C)CC3O)CC1)c1ccc(Cl)cc1 was tested, and the IC50 (second compound 0.3 µM) was 15.9 nM, the IC50 (second compound 0.949 µM) was under 0.316 nM and the IC50 (second compound 3 µM) was under 0.316 nM. It also gave an IC50 (second compound 9.49 µM) of under 0.316 nM, an IC50 (second compound 30 µM) of under 0.316 nM and a viability, T/C [31] of 103%. It also gave a viability, T/C [32] of 93.4%, a viability, T/C [33] of 82.4% and a viability, T/C [34] of 81%. The viability, T/C [1] was 4.01%, the viability, T/C [2] was 0.25% and the viability, T/C [35] was 33.5%. For the same molecule, the viability, T/C [36] was 22.1%, the viability, T/C [37] was 30.2% and the viability, T/C [38] was 25%. It also gave a viability, T/C [7] of 0.36%, a viability, T/C [8] of 0.13% and a viability, T/C [39] of 10.5%. For the same molecule, the viability, T/C [40] was 10%, the viability, T/C [41] was 10.2% and the viability, T/C [42] was 10.8%. The viability, T/C [13] was 0.42%, the viability, T/C [14] was 0.12% and the viability, T/C [43] was 5.98%. For the same molecule, the viability, T/C [44] was 6.67%, the viability, T/C [45] was 6.96% and the viability, T/C [46] was 6.39%. The viability, T/C [19] was 0.53%, the viability, T/C [20] was 0.12% and the viability, T/C [47] was 5.15%. It also gave a viability, T/C [48] of 4.38%, a viability, T/C [49] of 4.75% and a viability, T/C [50] of 4.63%. For the same molecule, the viability, T/C [25] was 0.23% and the viability, T/C [26] was 0.32%.
With `CC(C)n1nc(-c2ccc3oc(N)nc3c2)c2c(N)ncnc21` + CC(C)NCC(C(=O)N1CCN(c2ncnc3c2C(C)CC3O)CC1)c1ccc(Cl)cc1 the IC50 (second compound 0.3 µM) was 15 nM, the IC50 (second compound 0.949 µM) was 1.51 nM and the IC50 (second compound 3 µM) was under 0.316 nM. It also gave an IC50 (second compound 9.49 µM) of under 0.316 nM, an IC50 (second compound 30 µM) of under 0.316 nM and a viability, T/C [31] of 95.8%. It also gave a viability, T/C [32] of 97.5%, a viability, T/C [33] of 81.4% and a viability, T/C [34] of 62.4%. The viability, T/C [1] was 29.9%, the viability, T/C [2] was 18% and the viability, T/C [35] was 62%. For the same molecule, the viability, T/C [36] was 63.8%, the viability, T/C [37] was 26.7% and the viability, T/C [38] was 20.4%. The viability, T/C [7] was 14.1%, the viability, T/C [8] was 9.37% and the viability, T/C [39] was 17.9%. The viability, T/C [40] was 22.1%, the viability, T/C [41] was 14.9% and the viability, T/C [42] was 10.1%. The viability, T/C [13] was 9.06%, the viability, T/C [14] was 7.73% and the viability, T/C [43] was 9.8%. The viability, T/C [44] was 12.5%, the viability, T/C [45] was 7.29% and the viability, T/C [46] was 7.54%. It also gave a viability, T/C [19] of 4.98%, a viability, T/C [20] of 4.87% and a viability, T/C [47] of 6.54%. The viability, T/C [48] was 6.66%, the viability, T/C [49] was 5.92% and the viability, T/C [50] was 3.93%. It also gave a viability, T/C [25] of 3.59% and a viability, T/C [26] of 3.29%.
`CCCS(=O)(=O)Nc1ccc(F)c(C(=O)c2c[nH]c3ncc(-c4ccc(Cl)cc4)cc23)c1F` + CC(C)NCC(C(=O)N1CCN(c2ncnc3c2C(C)CC3O)CC1)c1ccc(Cl)cc1 gave an IC50 (second compound 0.3 µM) of 1900 nM, an IC50 (second compound 0.949 µM) of under 316 nM and an IC50 (second compound 3 µM) of under 316 nM. It also gave an IC50 (second compound 9.49 µM) of under 316 nM, an IC50 (second compound 30 µM) of under 316 nM and a viability, T/C [3] of 78.3%. It also gave a viability, T/C [4] of 66.9%, a viability, T/C [5] of 38% and a viability, T/C [6] of 12.7%. For the same molecule, the viability, T/C (second compound 0.3 µM, first compound 31.6 µM) was 20%, the viability, T/C (second compound 0.3 µM, first compound 100 µM) was 46.3% and the viability, T/C [9] was 29.6%. It also gave a viability, T/C [10] of 26.4%, a viability, T/C [11] of 20.5% and a viability, T/C [12] of 10.8%. It also gave a viability, T/C (second compound 0.949 µM, first compound 31.6 µM) of 5.67%, a viability, T/C (second compound 0.949 µM, first compound 100 µM) of 17.3% and a viability, T/C [15] of 18.5%. It also gave a viability, T/C [16] of 14.3%, a viability, T/C [17] of 11.6% and a viability, T/C [18] of 4.96%. It also gave a viability, T/C (second compound 3 µM, first compound 31.6 µM) of 1.71%, a viability, T/C (second compound 3 µM, first compound 100 µM) of 12.3% and a viability, T/C [21] of 9.5%. The viability, T/C [22] was 7.83%, the viability, T/C [23] was 7.41% and the viability, T/C [24] was 2.4%. It also gave a viability, T/C (second compound 9.49 µM, first compound 31.6 µM) of 0.86%, a viability, T/C (second compound 9.49 µM, first compound 100 µM) of 7.59% and a viability, T/C [27] of 5.18%. The viability, T/C [28] was 5.41%, the viability, T/C [29] was 2.16% and the viability, T/C [30] was 0.51%. The viability, T/C (second compound 30 µM, first compound 31.6 µM) was 0.2% and the viability, T/C (second compound 30 µM, first compound 100 µM) was 1.89%.
